# The source made the active and inactive calls.
# Key:
# [1] = target: T1, Polyadenylate-binding protein 1 (Homo sapiens, UniProt P11940); assay: PABP1 MLLE–PAM2 interaction inhibitors, dose response, miRNA deadenylation inhibitor project, biochemical, fluorescence polarization, Cy5-PAM2 peptide, secondary (AID 602260); format: functional; details: read-out: IC50_Mean
# [2] = target: T1, Polyadenylate-binding protein 1; assay: PABP1 MLLE–PAM2 binding inhibitor potency, dose response, biochemical, fluorescence polarization, FITC-PAM2 peptide (AID 602259); format: functional; details: read-out: IC50_Mean
# [3] = Luminescence Cell-Based Dose Response HTS to Identify Activators of Luciferase Translation or Activity in H4 […] Cells. [Related pubchem assays: 1829 (Project Summary), 1814 (Primary HTS)]; format: functional
# [4] = tested on: H4; assay: Luminescence Cell-Based Dose Response HTS to Identify Activators of 5'UTR Stem-Loop Driven Prion Protein mRNA Translation in H4 Neuroglioblastoma Cells. [Related pubchem assays: 1829 (Project Summary), 1814 (Primary HTS)]; format: functional; details: Homo sapiens
# [5] = target: T2, Protein skinhead-1 (Caenorhabditis elegans, UniProt P34707); format: functional
# T2 sequence (P34707 whole entry): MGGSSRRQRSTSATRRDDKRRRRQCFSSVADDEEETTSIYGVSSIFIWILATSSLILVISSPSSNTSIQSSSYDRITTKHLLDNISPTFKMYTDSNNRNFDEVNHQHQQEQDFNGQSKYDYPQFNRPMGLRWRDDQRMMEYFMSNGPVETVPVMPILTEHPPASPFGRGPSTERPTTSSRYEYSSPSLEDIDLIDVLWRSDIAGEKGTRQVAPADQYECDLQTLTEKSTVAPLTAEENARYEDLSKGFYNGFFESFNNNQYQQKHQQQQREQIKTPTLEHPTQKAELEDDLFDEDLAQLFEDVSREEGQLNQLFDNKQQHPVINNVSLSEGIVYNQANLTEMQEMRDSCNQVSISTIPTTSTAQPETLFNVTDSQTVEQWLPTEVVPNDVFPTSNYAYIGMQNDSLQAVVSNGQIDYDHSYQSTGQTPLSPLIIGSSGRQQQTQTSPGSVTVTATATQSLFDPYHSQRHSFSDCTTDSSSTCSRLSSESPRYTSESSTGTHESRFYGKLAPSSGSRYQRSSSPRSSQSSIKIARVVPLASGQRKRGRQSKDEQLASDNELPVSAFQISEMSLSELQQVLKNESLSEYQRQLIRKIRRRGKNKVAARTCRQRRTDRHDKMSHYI
# [6] = C. albicans growth with fluconazole, confirmation, fluorescence, retest (AID 2467); format: functional, cell-based
# [7] = NIH-3T3 fibroblast cytotoxicity, dose response, cytotoxicity control, cell-based, fluorescence, Alamar Blue, secondary assay (AID 2327); format: functional;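 note: NIH-3T3 mouse fibroblasts cultured with fluconazole at 8 µg/mL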
# [8] = inhibitors of SNCA 5'UTR-driven reporter translation, confirmation, H4 neuroglioma cells, luminescence (AID 1988); format: functional, cell-based
# [9] = Luminescence Cell-Based Dose Response HTS to Identify Inhibitors of 5'UTR Stem-Loop Driven Prion Protein mRNA Translation in H4 Neuroglioblastoma Cells. [Related pubchem assays: 1827 (Project Summary), 1813 (Primary HTS)]; format: functional
# [10] = inhibitors of firefly luciferase expression or activity, dose response, H4 neuroglioma cells, luminescence (AID 1990); format: functional, cell-based
# [11] = target: T3, Carboxy-terminal domain RNA polymerase II polypeptide A small phosphatase 1 (Homo sapiens, UniProt Q9GZU7); assay: inhibitors of CTDSP1, concentration-response testing, biochemical assay, absorbance-based, actives from ultra-high-throughput screening (AID 540297); format: functional
# T3 sequence (Q9GZU7 whole entry): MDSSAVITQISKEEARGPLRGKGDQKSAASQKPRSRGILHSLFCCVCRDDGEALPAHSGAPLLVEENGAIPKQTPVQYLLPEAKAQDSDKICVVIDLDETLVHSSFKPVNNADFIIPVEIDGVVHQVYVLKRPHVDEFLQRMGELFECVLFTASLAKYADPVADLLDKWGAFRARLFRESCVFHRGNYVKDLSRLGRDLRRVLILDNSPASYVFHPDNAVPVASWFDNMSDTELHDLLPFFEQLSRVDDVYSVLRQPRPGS
# T1 sequence (P11940 whole entry): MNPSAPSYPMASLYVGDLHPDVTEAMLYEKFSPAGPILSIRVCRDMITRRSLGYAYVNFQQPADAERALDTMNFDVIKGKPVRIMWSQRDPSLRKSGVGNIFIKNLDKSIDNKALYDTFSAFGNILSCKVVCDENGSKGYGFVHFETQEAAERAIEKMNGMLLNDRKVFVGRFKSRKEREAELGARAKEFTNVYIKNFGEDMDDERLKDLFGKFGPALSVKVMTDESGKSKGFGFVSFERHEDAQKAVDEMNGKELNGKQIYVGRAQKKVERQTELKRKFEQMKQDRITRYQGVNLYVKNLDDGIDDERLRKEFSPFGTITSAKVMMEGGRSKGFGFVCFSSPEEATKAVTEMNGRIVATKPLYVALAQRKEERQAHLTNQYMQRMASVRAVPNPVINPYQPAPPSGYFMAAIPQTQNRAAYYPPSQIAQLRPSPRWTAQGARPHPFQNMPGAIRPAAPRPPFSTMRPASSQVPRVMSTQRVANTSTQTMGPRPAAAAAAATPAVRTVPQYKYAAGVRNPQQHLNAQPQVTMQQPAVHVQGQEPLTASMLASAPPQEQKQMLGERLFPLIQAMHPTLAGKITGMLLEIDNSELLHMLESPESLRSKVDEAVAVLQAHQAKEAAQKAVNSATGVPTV
compound,measurement,setting,value
COc1ccc2oc(=O)c(C(=O)OCc3ccccc3)cc2c1,IC50,[1],> 66 µM (inactive)
same,IC50,[2],> 66 µM (inactive)
O=C(NN=C(NS(=O)(=O)c1ccc(Cl)cc1)c1ccccc1)c1cccc(Cl)c1,EC50,[3],7.54 µM (active)
same,EC50,[4],> 120 µM (not active)
Cc1cc2ccccn2c1C(=O)Nc1cccc(Cl)c1,IC50,[5],> 100 µM (inactive)
CCc1ccc(-c2csc3ncn(Cc4ccc(C(=O)O)cc4)c(=O)c23)cc1,EC50,[6],> 38 µM (not active)
same,EC50,[7],> 150 µM (inconclusive)
Fc1ccc(-n2nnc(-c3nccs3)n2)cc1,IC50,[5],22.8 µM (active)
Nc1ccc(Sc2ccc([N+](=O)[O-])cc2)cc1,EC50,[6],> 38 µM (not active)
same,EC50,[7],> 160 µM (inactive)
O=C(CN(Cc1ccco1)C(=O)CNS(=O)(=O)c1ccc(Cl)cc1)NC1CCCCC1,IC50,[5],> 100 µM (inactive)
O=C(NC(=S)Nc1ncccn1)c1ccccc1Cl,IC50,[1],> 66 µM (inactive)
same,IC50,[2],> 66 µM (inactive)
CC(=O)Nc1ccc(N2CC(C)(C)C2=O)cc1,EC50,[6],> 38 µM (not active)
same,EC50,[7],38.4 µM (active)
Brc1ccc(OCc2n[nH]c(-c3ccccn3)n2)cc1,IC50,[5],> 100 µM (inactive)
N#Cc1c(O)nc(-c2ccco2)c2c1CCCC2,IC50,[1],> 66 µM (inactive)
same,IC50,[2],> 66 µM (inactive)
CCN(c1c(C)n(C)n(-c2ccccc2)c1=O)S(C)(=O)=O,IC50,[1],> 66 µM (inactive)
same,IC50,[2],> 66 µM (inactive)
CCN(CC)CCN(C(=O)c1cc2c(ccc3ccccc32)oc1=O)c1nc2cc3c(cc2s1)OCCO3,EC50,[8],9.65 µM (active)
same,EC50,[9],> 120 µM (inconclusive)
same,EC50,[10],> 120 µM (not active)
Cc1cc(C(=O)COC(=O)c2cc(Cl)c(O)c(Cl)c2)c(C)n1C,IC50,[11],11.5 µM (active)
Brc1ccc2nc(N3CCCC3)sc2c1,IC50,[5],79.4 µM (inactive)
Cc1cnc(C(=O)Nc2ccccc2-c2ccc(C)o2)cn1,IC50,[5],> 100 µM (inactive)
Cc1c(Cl)ccc(S(=O)(=O)Nc2cccnc2)c1Cl,EC50,[6],> 38 µM (not active)
same,EC50,[7],> 150 µM (inactive)
Nc1nc(Nc2ccccc2)nc(NCc2ccccc2)c1[N+](=O)[O-],EC50,[8],44.7 µM (active)
same,EC50,[9],> 120 µM (not active)
same,EC50,[10],17 µM (active)
CC(=O)C1=C(O)C(=O)N(C)C1c1ccccc1[N+](=O)[O-] (stereo unspecified),IC50,[1],> 66 µM (inactive)
same,IC50,[2],> 66 µM (inactive)
COc1ccccc1C(=O)NCCn1ccc2ccccc21,IC50,[1],> 66 µM (inactive)
same,IC50,[2],> 66 µM (inactive)
CC1CCN(c2ccc(S(=O)(=O)Nc3cc(C(=O)O)cc(C(=O)O)c3)cc2[N+](=O)[O-])CC1,IC50,[11],9.99 µM (active)
